Source: patent publication US20070093520A1, “Method of treatment of diarrhea-predominant irritable bowel syndrome in a subject” (priority 2005, published 2007)

Tests used:
Type in all cases: in vivo, human
[1] = tested on: diarrhea-predominant IBS subjects; experiment: 3007 Study: IBS-QOL Survey
Excerpt: Subjects were asked to complete the IBS-QOL Survey at Visits 1, 3, and 6 in order to assess possible changes of their QOL.
Subjects were asked to complete a IBS-QOL Survey at Day 1 (Visit 5 of the core protocol), Month 6 and Month 12 (end of study or early termination) in order to assess possible changes of their QOL. The IBS-QoL survey, a 34 item IBS-specific QoL questionnaire consisting of 8 subscales (i.e., interference with activity; body image; health worry; food avoidance; social reaction; sexual; relationship; and dysphoria) was completed by patients at baseline and at later specified time points (e.g., at week 12 and at week 16 in Study 5050).
For IBS-QOL, Baseline for subjects randomized to the cilansetron treatment group was defined as […] of core Study 3006. For subjects randomized to the placebo group of core Study 3006, Visit 5 of the core Study 3006 was assigned as the Baseline.
Mean changes from Baseline for the IBS-QOL total score and subscale domains were summarized via descriptive statistics at […] and Visit 6 (Month 12) of Study 3007 for subjects randomized to the placebo group in core Study 3006 (or for subjects randomized to the cilansetron treatment group in the core Study 3006, at Visit 5 (Month 3), at Visit 3 (Month 6) and Visit 6 (Month 15) of Study 3007).
For Study 3007, “baseline” was defined as the last post-Baseline visit of Study 3006 (normally Visit 5) for subjects randomized to the placebo group and as Visit 1 of core Study 3006 for subjects randomized to the cilansetron treatment group.
The overall IBS-QOL score and the separate IBS-QOL domain scores (i.e. dysphoria, interference with activity, body image, health worry, food avoidance, social reaction, sexual, and relationship) were summarized by treatment group using descriptive statistics. The calculation of each domain score and the overall score is detailed in the user's manual. For each of the domain scores, as well as for the overall score, the change from Baseline to Endpoint was summarized descriptively. Based on the instruction from the author of the IBS-QOL questionnaire, the missing data of the IBS-QOL questionnaire were handled as follows: • If less than or equal to 20% of the items within a subscore (or total score) were missing for a subject, the subscore (or total score) was the summation of the non-missing scores for that subject; • If more than 20% of the items within a subscore (or total score) were missing, the subscore (or total score) was missing for that subject. Determination of Sample Size

[2] = tested on: diarrhea-predominant IBS subjects; experiment: 3008 Study: 12-lead ECG abnormalities; conditions: 3007 Study
Description: Resting 12-lead ECGs were performed at Day 1 (Visit 5 of the core protocol), Months 1, 6, and 12 (end of study or early termination visit). A centralized ECG service was used to evaluate all ECG tracings to supply consistent standardized ECG interpretation.
For by-visit assessments, visit windows were assigned to the post-Baseline assessments as follows (vital signs, laboratory tests, and ECGs):
All analyses and summaries for ECG assessments were based on the evaluation performed in the central ECG laboratory.
Summary statistics are presented for PR, QRS, QT, and QTc intervals (Bazett and Fridericia formulas) and heart rate at each visit and at Endpoint, as well as for change from Baseline results at each post-Baseline visit and at Endpoint. Bazett's and Fridericia's QTc intervals were calculated based on the following formulas: Bazett: QTc intervals=QT/√RR Fridericia: QTc intervals=QT/^3√RR
Markedly abnormal ECG parameter values collected after the first dose of study medication and within 30 days of the last dose of study medication were summarized overall. The following criteria were applied to identify markedly abnormal parameter values: • PR ≧0.210 sec; • QRS ≧0.120 sec; • QTc >0.440 sec;
The incidence of treatment-emergent ECG abnormalities is presented overall and by type of abnormality. A treatment-emergent ECG abnormality was an abnormality identified by the ECG core laboratory that was not present at baseline (e.g., prior to the entry into core Study 3006), and was observed on or after initiation of study medication and up to 30 days after discontinuation of study medication. The incidence of treatment-emergent ECG abnormalities is presented by time interval, as well as overall for the entire treatment period. The incidence of treatment-emergent abnormalities is also presented in more general categories (e.g., presenting incidence of treatment-emergent myocardial infarction overall as well as by location), depending on whether it mitigates the interpretation.

[3] = tested on: non-constipated IBS subjects; experiment: Phase II clinical trial Study S241.2.113, adequate relief of IBS symptoms; conditions: 2 mg TID

SMILES: Cc1nccn1C[C@H]1CCc2c(c3cccc4c3n2CCC4)C1=O [cilansetron, (R)-(−)-4,5,6,8,9,10-hexahydro-10-[(2-methyl-1H-imidazol-1-yl)methyl]-11H-pyrido-[3,2,1-jk]-carbazol-11-one]
- QOL after the start of cilansetron treatment ([1]; Study 3007, P/C): An improvement was observed
- improvement of mean IBS-QOL total score from Baseline ([1]; Study 3007, at Endpoint, C/C): 20.1
- mean IBS-QOL total score ([1]; Study 3007, at Endpoint, C/C): 70.7
- improvement of mean IBS-QOL total score from Baseline ([1]; Study 3007, at Endpoint, P/C): 8.9
- mean IBS-QOL total score ([1]; Study 3007, at Endpoint, P/C): 70.9
- mean IBS-QOL total score ([1]; Study 3007, at Endpoint, overall): 70.8
- mean IBS-QOL total score ([1]; at the start of Study 3007 (after 12 weeks of Study 3006), C/C): 69.5
- beneficial effect on the QOL observed during Study 3006 ([1]; during Study 3007, C/C): maintained
- ECG abnormality: early-repolarization-normal variant [2]: > 10%
- ECG abnormality: sinus arrhythmia [2]: > 10%
- ECG abnormality: sinus bradycardia [2]: > 10%
- incidence of treatment-emergent markedly abnormal QTc(F) ([2]; 30 subjects): 2%
- incidence of treatment-emergent markedly abnormal QTc(B) ([2]; 105 subjects): 8%
- adequate relief of IBS symptoms versus placebo [3]: superior to placebo
